Assay results taken from patent publication US20210353579A1, “HIGH PENETRATION COMPOSITIONS AND USES THEREOF” (Techfields Pharma Co., Ltd., priority 2006, published 2021).
≈ marks a conversion by molar mass, not a printed value. Where two headings read alike, the source gives them in different places.

Columns and labels:
[1] = test system: human skin tissue; conditions: pH 7.4
[2] = Plasma levels after transdermal administration to hairless mice; conditions: mouse, in vivo, po
[3] = as above; format: in vivo; conditions: for t, time to peak plasma level after parent compound: parent compound administered (time when taken orally)
Protocol: Tested compounds (20% solution or suspension in 1 mL isopropanol) are administered transdermally to the skin of intact hairless mice. The plasma levels of the parent compounds are determined by HPLC.

[4] = in vivo; conditions: rat
Protocol: (§1) The acute toxicity of the prodrug compounds and parent compounds are measured by LD50 of rat.

[5] = test system: human skin tissue; test: In vitro penetration rate through human skin, modified Franz cells; conditions: Franz cell; for In vitro penetration rate (apparent flux), prodrug compounds: 20% solution in 0.2 M phosphate buffer pH 7.4, human skin
[6] = test system: rats; test: Antipyretic activity, E. coli suspension as pyrogen; format: in vivo; conditions: in °C (unit assumed)
Protocol: Rats are administered with sterilized E. coli suspension as a pyrogen. Each group of rats are administered with a prodrug compounds or parent compounds at a dosage specified below. The prodrug compounds are administered either orally or transdermally. The parent compounds are administered orally.

[7] = Solubility in water / aqueous solubility of HPPs and parent drugs; conditions: for Solubility of HPP: medium not given
[8] = test system: rat
Protocol: as §1

[9] = test system: mice; test: Analgesic activity, acetic acid writhing; format: in vivo; conditions: 30 min before acetic acid
Protocol: The prodrug compounds are administered either transdermally or orally. The parent compounds are administered orally. The number of writhing that occurred when mice are administered the acetic acid solution are counted, and the rate of inhibition based on the control group which was not pretreated with any test compounds is calculated. […] The A group is the control group.

[10] = test system: Human breast cancer cells (BCAP-37); test: Human breast cancer xenograft in nude mice, topical
Protocol: Human breast cancer cells (BCAP-37, 2-3 mm^3 of tumor tissue was used in each mouse) are subcutaneously xenografted into the front leg of nude mice (BALB, 12 groups, 7 mice each group). […] Then 30 μl of 5% (equal to 1.5 mg of the HPPs) diethylaminoethyl acetylsalicylate.acetylsalicylic acid salt (P-1, in acetone); 1-piperidinepropyl 2[(2,6-dichlorophenyl)amino]benzene acetate.AcOH (P-2, in water), 1-pyrrolidinepropyl 2-(3-benzoylphenyl) propionate.AcOH (P-3, in water), 4-piperidinemethyl 2-(3-phenoxyphenyl)propionate.AcOH (P-4, in water), 3-piperidinemethyl 2-(ρ-isobutylphenyl) propionate.AcOH (P-5, in water), diethylaminoethyl 1-(p-chlorobenzoyl)-5-methoxy-2-methylindole 3-acetate.AcOH (P-11, in water), 2-(4-morpholinyl)ethyl (Z)-5-fluoro-2-methyl-1-[(4-methylsulfinyl) phenylmethylene]-1H-indene-3-acetate.AcOH (P-12, in water), diethylaminoethyl

[11] = test system: Human colon cancer cells (LS174J); test: Human colon cancer xenograft in nude mice, topical; conditions: day 30, about 30 μl of 5% solution (1.5 mg) topically applied
Source text: Human colon cancer cells (LS174J, 2-3 mm^3 of tumor tissue was used in each mouse) are subcutaneously xenografted into the front leg of nude mice (BALB).

[12] = test system: Chinese white rabbits; test: Malassezia-induced lesions similar to psoriasis; format: in vivo, rabbit; conditions: 5% aqueous solution twice per day, 10 days after application
Source text: Heavy suspensions of Malassezia [Rosenberg, E. W., et al., Mycopathologia, 72, 147-154 (1980)] were applied to the shaved skin on the backs of the Chinese white rabbits (n=4×6) twice (at 7 am and 7 pm) per day for 2 weeks, lesions similar to psoriasis resulted.

[13] = test system: mice; test: Analgesic activity, D'Amour-Smith method (tail heat, pain threshold); format: in vivo; conditions: 200 mg/kg transdermally vs 200 mg/kg diflunisal orally
Protocol: After the tested compounds are administered (the dosages for each test compounds are specified in FIG. 3, prodrug compounds are administered orally and transdermally respectively in different groups, while parent compounds are administered orally) to a group of mice (six mice every group), the tails of mice are exposed to heat and the prolongation time of pain threshold is determined. […] The prodrug compounds show similar analgesic activities when the same dosages are administered orally or transdermally. (FIG. 3)

[14] = test system: C57/BL6 mice, MPTP; test: MPTP Parkinson's disease mice: GABA and Glu in substantia nigra and striatum; conditions: mouse, in vivo
Protocol: Group A mice were i.p. injected 0.4% sodium carboxymethylcellulos (15 ml/kg per day) for 7 days. Group B and C mice were i.p. injected N-methyl-4-phenyl-1,2,3,6-tetrahydropyridine (MPTP, 30 mg/kg per day) for 7 days. The mice were divided into 2 groups. […] All mice were killed after the last treatment and the brain tissues were quickly frozen at −80° C. […] The contents of GABA and Glu in the striatum and SN were shown by high performance amino acid auto-analyser.

[15] = Distribution of prodrug and metabolites in tissues after application to the back of killed rats; format: in vivo; conditions: Wistar, rat, 50 mg/kg, 3 h after 50 mg/kg prodrug citric acid salt on the back of killed rat, 37° C.
Protocol: The mixture was centrifuged for 5 minutes at 16,000 rpm. The supernatant (2 ml) was collected and evaporated to dryness.

[16] = parent compound administered, hairless mice
[17] = transdermal, 20% in 1 mL isopropanol, hairless mice
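For LD50 in this document: acute toxicity in rats expressed as LD50, determined for both prodrugs and their parent compounds.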
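For LD50 of HPP in this document: acute toxicity in rats expressed as LD50, determined for both prodrugs and their parent compounds.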
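For LD50 of parent drug in this document: acute toxicity in rats expressed as LD50, determined for both prodrugs and their parent compounds.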

| Molecule | In vitro penetration rate (apparent flux), parent compounds [1] [μg/cm^2/h] | t, time to peak plasma level after parent compound [2] [h] | Peak plasma concentration after parent compound ([3]; mouse, in vivo) [mg/L] | body temperature, t = 0 min ([6]; 100 mg/kg transdermally) | body temperature, t = 90 min ([6]; 100 mg/kg transdermally) | body temperature, t = 180 min ([6]; 100 mg/kg transdermally) | body temperature, t = 270 min ([6]; 100 mg/kg transdermally) | % (rate of writhing inhibition) ([9]; 100 mg/kg transdermally) [%] | No. of Writhing ([9]; 100 mg/kg transdermally) | In vitro penetration rate (apparent flux), prodrug compounds [5] [μg/cm^2/h] | Peak plasma concentration of parent compound after prodrug compound [3, 17] [mg/L] | t, time to peak plasma level of parent compound after prodrug compound [3, 17] [min] | also measured |
| --- | --- | --- | --- | --- | --- | --- | --- | --- | --- | --- | --- | --- | --- |
| Nc1c(CC(=O)O)cccc1C(=O)c1ccc(Br)cc1 [Bromofenac, bromofenac] | 10 | 1 to 2 | 0.1 | – | – | – | – | – | – | – | – | – | – |
| O=C(O)CC(O)c1ccc(-c2ccc(Cl)cc2)o1 (centres unmarked) [Orpanoxin, orpanoxin] | 30 | 2 to 4 | 10 | – | – | – | – | – | – | – | – | – | – |
| CN1C(C(=O)Nc2nccs2)=C(O)c2ccccc2S1(=O)=O [Sudoxiam, sudoxiam] | <1 | 2 to 4 | 0.1 | – | – | – | – | – | – | – | – | – | – |
| CC1=C(CC(=O)O)c2cc(F)ccc2/C1=C\c1ccc([S+](C)[O-])cc1 (centres unmarked) [Sulindac, sulindac, reference compound] | – | – | – | – | – | – | – | – | – | – | – | – | LD50 [4]: 260 mg/kg; In vitro penetration rate (apparent flux), parent compounds ([5]; 20% suspension in 0.2 M phosphate buffer pH 7.4, human skin, detection limit 1): 10 μg/cm^2/h; t, time to peak plasma level after parent compound [3]: 1 to 2 h; Peak plasma concentration after parent compound [3, 16]: 0.1 mg/L |
| CC(=O)O.CCN(CC)CCOC(=O)Cc1c(C)n(C(=O)c2ccc(Cl)cc2)c2ccc(OC)cc12 [diethylaminoethyl 1-(p-chlorobenzoyl)-5-methoxy-2-methylindole 3-acetate.AcOH] | – | – | – | 37.35 ± 0.06 | 36.91 ± 0.05 | 36.85 ± 0.08 | 36.79 ± 0.07 | 55 | 15.6 | 1100 | 20 | 50 | Solubility of HPP [7]: >250 mg/mL; LD50 of HPP ([8]; rats): 100 mg/kg; Tumor size ([10]; day 42, 30 μl of 5% (1.5 mg) topically every 8 hours from day 14, control 800 ± 100): 210 ± 100 mm^3; Mouse weight ([10]; mouse, in vivo): 21 ± 2 g |
| CC(=O)O.CCN(CC)CCOC(=O)Cc1ccc(C(=O)c2ccc(C)cc2)n1C [diethylaminoethyl 1-methyl-5-(4-methylbenzoyl)-1H-pyrrole-2-acetate.AcOH] | – | – | – | 37.27 ± 0.06 | 36.71 ± 0.05 | 36.65 ± 0.08 | 36.59 ± 0.07 | 51 | 17.1 | 1000 | 20 | 50 | Mouse weight [11]: 21 ± 2 g; Tumor size [11]: 610 ± 200 mm^3; LD50 of HPP ([8]; rat, in vivo): 600 mg/kg; lesions similar to psoriasis [12]: the lesions were resolved |
| CC(=O)O.CCN(CC)CCOC(=O)c1cc(-c2ccc(F)cc2F)ccc1O [diethylaminoethyl 5-(2,4-difluorophenyl) salicylate.AcOH] | – | – | – | 37.22 ± 0.07 | 36.42 ± 0.06 | 36.40 ± 0.05 | 36.47 ± 0.08 | 71 | 10.2 | – | – | – | body temperature, t = 0 min ([6]; 150 mg/kg transdermally): 37.26 ± 0.08; body temperature, t = 90 min ([6]; 150 mg/kg transdermally): 36.20 ± 0.05; body temperature, t = 180 min ([6]; 150 mg/kg transdermally): 36.30 ± 0.07; body temperature, t = 270 min ([6]; 150 mg/kg transdermally): 36.31 ± 0.08; In vitro penetration rate (apparent flux), prodrug compounds [1]: 100 μg/cm^2/h; analgesic activity, prolongation time of pain threshold of mice tails [13]: stronger analgesic activity; LD50 of HPP ([8]; rats): 1000 mg/kg; % (rate of writhing inhibition) ([9]; 50 mg/kg transdermally): 62%; No. of Writhing ([9]; 50 mg/kg transdermally): 13.2; Peak plasma concentration of parent compound after prodrug compound ([3]; mouse, in vivo): 50 mg/L; t, time to peak plasma level of parent compound after prodrug compound ([3]; mouse, in vivo): 30 min |
| CC(=O)O.CCN(CC)CCOC(=O)Cc1cc(C)c(C(=O)c2ccc(Cl)cc2)n1C [diethylaminoethyl 5-(4-Chlorobenzoyl)-1,4-dimethyl-1H-pyrrole-2-acetate.AcOH] | – | – | – | 37.21 ± 0.07 | 36.82 ± 0.06 | 36.70 ± 0.05 | 36.70 ± 0.08 | 55 | 15.6 | 1200 | 20 | 50 | LD50 of HPP ([8]; rat, in vivo): 200 mg/kg; lesions similar to psoriasis [12]: the lesions were resolved |
| CC(=O)O.CCN(CC)CCOC(=O)C(C)c1ccc2c(c1)[nH]c1ccc(Cl)cc12 (stereo not drawn) [diethylaminoethyl 6-chloro-α-methyl-9H-carbazole-2-acetate.AcOH] | – | – | – | 37.28 ± 0.06 | 36.68 ± 0.05 | 36.62 ± 0.08 | 36.58 ± 0.07 | 59 | 14.2 | 4000 | 2000 | 50 | Solubility of HPP [7]: >350 mg/mL; Solubility in water ([7]; product as prepared in Example 1): 400 mg/mL; LD50 of HPP ([8]; rats): 700 mg/kg |
| NC(=O)C[S+]([O-])C(c1ccccc1)c1ccccc1 (centres unmarked) [modafinil, reference compound] | – | – | – | – | – | – | – | – | – | – | – | – | increase of nigrostriatal Glu release induced by MPTP [14]: did not change |
| O=C(O)c1ccccc1O [salicylic acid] | – | – | – | – | – | – | – | – | – | – | – | – | In vitro penetration rate (apparent flux), parent compounds ([1]; human, 20 %): <1 μg/cm^2/h; solubility ([7]; water): 0.1 mg/mL (≈ 724 µM); concentration at 3 h ([15]; read-out: amount in Bone): 35000 ± 6000 ng/g; concentration at 3 h ([15]; read-out: amount in Brain): 30000 ± 6000 ng/g; concentration at 3 h ([15]; read-out: amount in Liver): 45000 ± 8000 ng/g; concentration at 3 h ([15]; read-out: amount in Plasma): 65 ± 10 µg/mL; t, time to peak plasma level after parent compound [3]: 1 to 2 h; Peak plasma concentration after parent compound [3, 16]: 0.1 mg/L |
| salicylsalicylic acid [Salsalate, reference compound] | <1 | 1 to 2 | 0.1 | – | – | – | – | – | – | – | – | – | LD50 of parent drug ([8]; rats): 1500 mg/kg |
